Data taken from the supplement of paper PMC6045584.
± gives the standard deviation of the averaged measurements.

Key:
EVEROLIMUS = compound: CO[C@H]1C[C@@H]2CC[C@@H](C)[C@@](O)(O2)C(=O)C(=O)N2CCCC[C@H]2C(=O)O[C@H]([C@H](C)C[C@@H]2CC[C@@H](OCCO)[C@H](OC)C2)CC(=O)[C@H](C)/C=C(\C)[C@@H](O)[C@@H](OC)C(=O)[C@H](C)C[C@H](C)/C=C/C=C/C=C/1C [EVEROLIMUS]; assay: surviving fraction relative to DMSO-only wells; higher = less growth inhibition; details: exposure time: 5 days
How it was run: (§1)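 Five days of continuous inhibitor exposure, at 0.5, 1, 5, 10, 50, 100, 500 and 1000 nM, followed a 24-hour period after log-phase tumour cell lines were seeded at 250–500 cells per well in 384-well plates. Surviving fraction was derived from CellTiter-Glo luminescence relative to the median of DMSO-only wells. Plates were read after 10 minutes at room temperature, and lines screened three times were kept only if replicate Pearson r >0.7 and median Z' >0.3.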

ERLOTINIB = compound: C#Cc1cccc(Nc2ncnc3cc(OCCOC)c(OCCOC)cc23)c1 [ERLOTINIB]; assay: as above; details: exposure time: 5 days
How it was run: as §1

[1] = compound: Cc1nc(Nc2n[nH]c3c2CN(C(=O)N[C@H](CN(C)C)c2ccccc2)C3(C)C)c2sccc2n1; assay: area under dose-response curve of surviving fraction (unscaled, Aref=0) (surviving fraction x log10(nM)); higher = more resistant; details: exposure time: 5 days; dose range 0.5-1000 nM
How it was run: (§2)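 Surviving fractions were fitted by 3-parameter logistic regression in the drc R package to give dose-response survival curves. They came from tumour cell lines treated for five days with eight inhibitor concentrations from 0.5 to 1000 nM and read by CellTiter-Glo luminescence against DMSO-only wells. The area under the curve is the unscaled activity area. It was calculated over log10 dose with Aref = 0.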

VINORELBINE = compound: CCC1=C[C@@H]2CN(C1)Cc1c([nH]c3ccccc13)[C@@](C(=O)OC)(c1cc3c(cc1OC)N(C)[C@H]1[C@@](O)(C(=O)OC)[C@H](OC(C)=O)[C@]4(CC)C=CCN5CC[C@]31[C@@H]54)C2 [VINORELBINE]; assay: as above; details: exposure time: 5 days; dose range 0.5-1000 nM
How it was run: as §2

GEMCITABINE = compound: Nc1ccn([C@@H]2O[C@H](CO)[C@@H](O)C2(F)F)c(=O)n1 [GEMCITABINE]; assay: as above; details: exposure time: 5 days; dose range 0.5-1000 nM
How it was run: as §2

ETOPOSIDE = compound: COc1cc([C@@H]2c3cc4c(cc3[C@@H](O[C@@H]3O[C@@H]5CO[C@@H](C)O[C@H]5[C@H](O)[C@H]3O)[C@H]3COC(=O)[C@H]23)OCO4)cc(OC)c1O [ETOPOSIDE]; assay: as above; details: exposure time: 5 days; dose range 0.5-1000 nM
How it was run: as §2

Row | Test System | surviving fraction (EVEROLIMUS; 0.5 nM) | surviving fraction (EVEROLIMUS; 1 nM) | surviving fraction (EVEROLIMUS; 5 nM) | surviving fraction (EVEROLIMUS; 10 nM) | surviving fraction (EVEROLIMUS; 50 nM) | surviving fraction (EVEROLIMUS; 100 nM) | surviving fraction (EVEROLIMUS; 500 nM) | surviving fraction (EVEROLIMUS; 1000 nM) | surviving fraction (ERLOTINIB; 0.5 nM) | surviving fraction (ERLOTINIB; 1 nM) | surviving fraction (ERLOTINIB; 5 nM) | surviving fraction (ERLOTINIB; 10 nM) | surviving fraction (ERLOTINIB; 50 nM) | surviving fraction (ERLOTINIB; 100 nM) | surviving fraction (ERLOTINIB; 500 nM) | surviving fraction (ERLOTINIB; 1000 nM) | area under dose-response curve [1] | area under dose-response curve (VINORELBINE) | area under dose-response curve (GEMCITABINE) | area under dose-response curve (ETOPOSIDE)
1 | BT549 BREAST | 0.569 ± 0.026 | 0.531 ± 0.061 | 0.415 ± 0.032 | 0.499 ± 0.079 | 0.4507 ± 0.0023 | 0.418 ± 0.05 | 0.365 ± 0.017 | 0.356 ± 0.027 | 0.973 ± 0.036 | 1.01 ± 0.15 | 1.06 ± 0.11 | 1.1 ± 0.12 | 1.19 ± 0.071 | 1.22 ± 0.047 | 1.13 ± 0.03 | 1.03 ± 0.069 | 1 | 1.62 | 1.03 | 2.79
2 | CADOES1 SOFT TISSUE | 0.842 ± 0.1 | 0.74 ± 0.072 | 0.529 ± 0.052 | 0.472 ± 0.11 | 0.309 ± 0.036 | 0.344 ± 0.098 | 0.259 ± 0.017 | 0.268 ± 0.04 | 0.854 ± 0.09 | 0.853 ± 0.033 | 0.882 ± 0.11 | 0.839 ± 0.11 | 0.783 ± 0.073 | 0.829 ± 0.057 | – | 0.842 ± 0.077 | 2.56 | 2.63 | 1.18 | 3
3 | CAL51 BREAST | 0.684 ± 0.049 | 0.527 ± 0.046 | 0.406 ± 0.026 | 0.376 ± 0.0096 | 0.332 ± 0.029 | 0.283 ± 0.011 | 0.257 ± 0.039 | 0.26 ± 0.025 | 0.969 ± 0.04 | 0.993 ± 0.069 | 1.05 ± 0.067 | 1.02 ± 0.062 | 1.07 ± 0.045 | 1.07 ± 0.036 | 1.09 ± 0.059 | 1.061 ± 0.0043 | 0.818 | 1.28 | 0.99 | 2.79
4 | CASKI CERVIX | 0.57 ± 0.035 | 0.506 ± 0.025 | 0.473 ± 0.018 | 0.402 ± 0.029 | 0.446 ± 0.021 | 0.389 ± 0.043 | 0.376 ± 0.0098 | 0.379 ± 0.014 | 0.908 ± 0.099 | 0.856 ± 0.053 | – | 0.8153 ± 0.0021 | 0.717 ± 0.049 | 0.547 ± 0.031 | 0.336 ± 0.013 | 0.239 ± 0.018 | 0.674 | 1.27 | 1.01 | 2.72
5 | CHLA90 AUTONOMIC GANGLIA | 0.634 ± 0.051 | 0.512 ± 0.026 | 0.342 ± 0.021 | 0.343 ± 0.011 | 0.372 ± 0.066 | 0.404 ± 0.091 | 0.355 ± 0.067 | 0.344 ± 0.085 | 1.01 ± 0.059 | 0.963 ± 0.12 | – | 0.94 ± 0.041 | 0.984 ± 0.09 | 0.948 ± 0.079 | 0.856 ± 0.057 | 0.88 ± 0.036 | 1.57 | 1.69 | 1.39 | 2.94
6 | CME SYNOVIAL | 1.2 ± 0.12 | 1.2 ± 0.2 | 1.29 ± 0.071 | 1.15 ± 0.16 | 0.885 ± 0.096 | 0.828 ± 0.066 | 0.66 ± 0.085 | 0.77 ± 0.1 | 1.29 ± 0.069 | 1.29 ± 0.052 | 1.32 ± 0.091 | 1.33 ± 0.17 | 1.44 ± 0.17 | 1.36 ± 0.12 | 1.29 ± 0.17 | 1.16 ± 0.17 | 3.07 | 2.33 | 1.25 | 2.46
7 | COLO320DM LARGE INTESTINE | 0.945 ± 0.056 | 0.983 ± 0.072 | 0.835 ± 0.081 | 0.843 ± 0.074 | 0.742 ± 0.017 | 0.779 ± 0.037 | 0.695 ± 0.047 | 0.652 ± 0.025 | 1.17 ± 0.18 | 0.993 ± 0.074 | 1.06 ± 0.094 | 1.09 ± 0.12 | 1.155 ± 0.011 | 1.02 ± 0.078 | 1.04 ± 0.039 | 0.99 ± 0.032 | 2.68 | 3.2 | 1.53 | 3.54
8 | DU4475 BREAST | 0.429 ± 0.1 | 0.272 ± 0.054 | 0.148 ± 0.0015 | 0.161 ± 0.03 | 0.108 ± 0.031 | 0.125 ± 0.03 | 0.103 ± 0.0061 | 0.0877 ± 0.012 | 0.965 ± 0.051 | 0.972 ± 0.086 | – | – | – | 1.17 ± 0.027 | 1.15 ± 0.14 | 1.02 ± 0.033 | 0.457 | 1.96 | 1.48 | 1.65
9 | H23 LUNG | 0.811 ± 0.023 | 0.724 ± 0.011 | 0.567 ± 0.049 | 0.501 ± 0.039 | 0.488 ± 0.022 | 0.482 ± 0.034 | 0.405 ± 0.048 | 0.433 ± 0.03 | – | 1.04 ± 0.038 | 0.998 ± 0.065 | 0.992 ± 0.055 | 0.774 ± 0.051 | 0.488 ± 0.016 | 0.349 ± 0.015 | 0.336 ± 0.015 | 1.47 | 1.74 | 1.22 | 3.08
10 | HCC70 BREAST | 0.866 ± 0.073 | 0.749 ± 0.059 | 0.606 ± 0.017 | 0.536 ± 0.024 | 0.536 ± 0.052 | 0.543 ± 0.019 | 0.44 ± 0.054 | 0.429 ± 0.01 | 1.1 ± 0.094 | – | 1.15 ± 0.071 | 1.06 ± 0.097 | 1.03 ± 0.066 | 0.992 ± 0.022 | 1.03 ± 0.044 | 0.952 ± 0.096 | 0.85 | 1.66 | 1.12 | 3.16
11 | HCC78 LUNG | 0.516 ± 0.13 | 0.674 ± 0.26 | 0.528 ± 0.11 | 0.627 ± 0.11 | 0.621 ± 0.1 | 0.599 ± 0.18 | 0.358 ± 0.052 | 0.327 ± 0.055 | 0.768 ± 0.087 | – | 0.918 ± 0.11 | 1.02 ± 0.033 | 0.962 ± 0.18 | – | 0.767 ± 0.15 | 0.847 ± 0.1 | 1.31 | 1.48 | 0.382 | 2.45
12 | HCC1806 BREAST | 0.918 ± 0.13 | 0.911 ± 0.043 | 0.888 ± 0.085 | 0.851 ± 0.051 | 0.784 ± 0.095 | 0.859 ± 0.083 | 0.669 ± 0.11 | 0.74 ± 0.12 | 1.04 ± 0.062 | 1.1 ± 0.067 | 1.13 ± 0.056 | 1.15 ± 0.061 | 1.2 ± 0.042 | 1.12 ± 0.037 | 0.656 ± 0.069 | 0.623 ± 0.025 | 0.463 | 1.33 | 0.258 | 2.5
13 | HCC1954 BREAST | 0.4 ± 0.05 | 0.376 ± 0.082 | 0.399 ± 0.074 | 0.428 ± 0.08 | 0.321 ± 0.014 | 0.308 ± 0.016 | 0.249 ± 0.039 | 0.275 ± 0.037 | 1.05 ± 0.059 | 1.14 ± 0.082 | 1.35 ± 0.075 | 1.35 ± 0.23 | 0.782 ± 0.23 | 0.708 ± 0.23 | 0.527 ± 0.066 | 0.493 ± 0.092 | 1.63 | 1.3 | 1.75 | 2.69
14 | HCT15 LARGE INTESTINE | 0.803 ± 0.066 | 0.702 ± 0.066 | 0.599 ± 0.07 | 0.511 ± 0.013 | 0.512 ± 0.055 | 0.511 ± 0.059 | 0.476 ± 0.046 | 0.542 ± 0.037 | 1.06 ± 0.12 | 1 ± 0.15 | 0.979 ± 0.17 | 0.977 ± 0.078 | 1.1 ± 0.038 | 1.11 ± 0.039 | 1.1 ± 0.044 | – | 2.81 | 2.64 | 1.15 | 3.09
